{"source": "patent US20100292306A1", "about": "“Compositions And Methods For The Treatment Of Muscular Dystrophy” (priority 2005, published 2010)", "key": {"mdx mice": {"system": "mdx mice", "assay": "Noninvasive whole body tension (WBT) measurement of forward pulling tensions", "assay_type": "in vivo", "excerpt": "FIG. 18 presents individual “forward pulling tensions” (FPTs; upward deflections) recorded from a PDTC-treated mouse (Series 2) using the whole body tension (WBT) technique (Carlson and Makiejus, 1990). The rank order of FPTs from highest to lowest is indicated by the numbers in the figure. […] In the Series 2 experiments, WBT measurements were obtained from each of the saline-injected and PDTC-injected mice on days 0, 9, 21 and 40 of the experiment.\nAs a first step in examining the potential effects of PDTC treatment on WBT tension development, the slope of the decline in FPTs was evaluated for each recording session for each mouse examined in the Series 2 experiments (FIG. 19A, 19B). This measure essentially provides a “fatigue index” (FI) since the slope of the decline in FPTs is a direct measure of the average magnitude of the decline in FPT per individual pull for rank-ordered pulls number 2 through 10. If 10 individual pulls obtained during the recording session have identical magnitudes representing the highest FPT, then the FI equals 0. In contrast, a 50% reduction in FPT per pull would produce an FI equal to −0.5.\nTo examine the potential effect of PDTC treatment on FI in age matched adult mdx mice, a pre-treatment FU was obtained during a typical recording session from each of 10 mdx mice used in the Series 2 investigations (age 9.5 to 16 months at beginning of study). Five of the mice were subsequently treated with daily injections of vehicle (HEPES buffered Ringer's solution) and 5 of the mice were treated with daily injections of 50 mg/kg PDTC. Recordings for each of the mice were subsequently obtained on days 9, 21, and 40 of the treatment period (e.g., FIG. 19). To determine the potential effects of treatment on FI, the FIs obtained on days 9, 21, and 40 (e.g., FIG. 19) were each normalized to the pre-treatment FI for each of the 10 mice used in the study. […] A decrease in the FI indicating a reduction in the average loss of tension per pull during the course of the study would produce normalized FIs less than one, no change in FI would be associated with normalized FIs equal to 1.0, and increases in FI would produce normalized FIs greater than 1.0.\nMdx (C57 Bl10-mdx) and nondystrophic (C57Bl10-SnJ) mice were obtained from Jackson laboratories and bred under conditions approved by the Institutional Animal Care and Use Committee (IACUC). All studies were performed in accordance with the guidelines provided by the IACUC. Male and female PDTC treated mdx mice received daily intraperitoneal (ip) injections of 50 mg/kg pyrollidine dithiocarbamate (PDTC; Sigma P8765) dissolved in sterile-filtered (0.2 μm) HEPES-buffered Ringers solution (147.5 mM NaCl, 5 mM KCl, 2 mM CaCl2, 11 mM glucose, 5 mM Hepes, pH 7.35). Age- and gender-matched groups of vehicle-treated mice received corresponding injections of HEPES Ringers. See Carlson et al., 2005. The PDTC experiments were conducted on two series of mature adult mdx mice (9.5-16 month; 19-20 months) and on a series of young adult (1 month) mice. In each case, the mice in the experimental and vehicle-treated groups were matched according to age and gender with an equal number of males and females in each group. WBT tension measurements were obtained prior to initiating treatment and on multiple occasions following at least 3 weeks (20 days) of treatment.\nA group of 30 day-old mdx mice were exposed to daily ip injections (30 day) of 40 mg/kg UDCA (Sigma #5127; 2 mg/ml; N=12 experimental) in an isotonic saline vehicle (1.02% NaCl, pH 8.4,) or a synthetic taurine derivative of UDCA (tauroursodeoxycholic acid, TUDCA, SpA Laboratorio Farmacologico, Cenate Sotto, Italy; 6 mg/ml; N=4 experimental) administered in a saline vehicle (NaCl 6 g/l, KCl 0.3 g/l, CaCl2 0.2 g/l, Na acetate 4 g/l, 300 mosM/l, pH 6.1).\nWBT measurements were obtained as indicated in Examples 5 through 7 by placing an approximately 0.5 inch square piece of adhesive tape around the tail about 1 inch from the tip. […]"}, "[1]": {"system": "mdx triangularis sterni (TS) muscle", "assay": "Histological cross sections of mdx TS muscle (fiber number, diameter, density, myonuclei, centronucleation)", "assay_type": "in vivo, mdx mice", "excerpt": "To further examine the morphological effects of chronic treatment with inhibitors of the NFκB pathway, the fixed TS preparations used in these investigations on mature mdx mice (Series 2 through 4) were sectioned and stained with hematoxylin and eosin using standard histological procedures (FIG. 7A, 7B, 7C). […] PDTC treatment produced a significant (p<0.001) reduction in diameter in the caudal region and a significant (p<0.001) increase in diameter in the middle region in comparison to corresponding values from the vehicle-injected mdx mice (FIG. 9).\nTo determine the density of muscle fibers in the mdx TS muscle, individual sections representing all of the fibers within each TS muscle were evaluated by determining the average number of fiber cross sections per unit length of the TS muscle where the length is defined along the axis orthogonal to the principal fiber axis. This procedure was performed for all of the available TS muscles initially used in the Series 2 and 3 PDTC investigations.\nDetermination of the total number of myonuclei across all regions of the mature nondystrophic, mdx-vehicle, and mdx-PDTC treated TS muscles in conjunction with determination of the total number of fiber cross sections in the same preparations provided an immediate measure of the number of myonuclei per sectioned fiber (FIG. 12).\nThese morphological results provide direct evidence that inhibitors of the NFκB pathway may have beneficial effects in treating both young and mature dystrophic preparations."}, "[2]": {"conditions": "individual 6 month mdx male, 50 mg/kg for 30 days (FIG. 34C)"}, "[3]": {"conditions": "mature mdx, Series 2 through 4, post-treatment (at least 20 days), p<0.05"}, "[4]": {"conditions": "mature mdx, Series 2 through 4, p<0.05"}, "[5]": {"conditions": "Series 2 and 3, vs age-matched vehicle"}, "[6]": {"conditions": "mature mdx, vs vehicle-injected, p<0.001"}}, "note": "“Also recorded” adds a separate entry of the source."}
{"smiles": "S=C(S)N1CCCC1", "note": "[PDTC, pyrrolidine dithiocarbamate]", "values": [{"measurement": "functional reserve FR (WBT10/WBT5)", "setting": "mdx mice; 50 mg/kg 30 consecutive days from about 30 days of age, at 60 days", "value": "approximately 0.9"}, {"measurement": "normalized fatigue index (FI), effect of treatment over days", "setting": "mdx mice; Series 2, 50 mg/kg daily, Kruskal-Wallis p<0.05, Day 0 vs Day 9 and Day 40", "value": "significant effect"}, {"measurement": "normalized FI vs vehicle-injected", "setting": "mdx mice; Series 2, Day 40, p<0.05", "value": "significantly different"}, {"measurement": "fatigue index (FI), combined post-treatment results", "setting": "mdx mice; Series 2, Days 9, 21 and 40 combined, p<0.05 vs vehicle", "value": "reducing; also recorded: reduces"}, {"measurement": "normalized FI vs vehicle-injected", "setting": "mdx mice; Series 2, Days 9 and 21", "value": "failed to reach significance"}, {"measurement": "FPT10 as percent of FPT1", "setting": "mdx mice; [2]", "value": "approximately 77%"}, {"measurement": "maximum FPT", "setting": "mdx mice; [2]", "value": "approximately 310 g"}, {"measurement": "whole body strength", "setting": "mdx mice; mature mdx mice", "value": "significantly increasing"}, {"measurement": "WBT5 vs vehicle-injected", "setting": "mdx mice; [3]", "value": "elevated"}, {"measurement": "WBT10 vs vehicle-injected", "setting": "mdx mice; [3]", "value": "elevated"}, {"measurement": "FR (WBT10/WBT5) post-treatment vs pre-treatment", "setting": "mdx mice; [4]", "value": "increased"}, {"measurement": "WBT10 post-treatment vs pre-treatment", "setting": "mdx mice; [4]", "value": "increased"}, {"measurement": "increase in WBT5 relative to vehicle", "setting": "mdx mice; young mdx, 60 days of age", "value": "did not reach statistical significance"}, {"measurement": "increase in WBT10 relative to vehicle", "setting": "mdx mice; young mdx, 60 days of age", "value": "did not reach statistical significance"}, {"measurement": "FR relative to vehicle-injected mdx mice", "setting": "mdx mice; young mdx, 60 days of age, p<0.01", "value": "increased; also recorded: prevents a decline"}, {"measurement": "fiber number, caudal region", "setting": "[1]; [5]", "value": "substantial increases"}, {"measurement": "fiber number, cephalad region", "setting": "[1]; [5]", "value": "an increase"}, {"measurement": "fiber number, middle region", "setting": "[1]; [5]", "value": "no change"}, {"measurement": "number of fibers per unit length", "setting": "[1]; Series 2 and 3, cephalad and caudal regions, p<0.05", "value": "increased"}, {"measurement": "number of myonuclei per fiber", "setting": "[1]; Series 2 and 3 mature mdx, vs age matched vehicle, p<0.001", "value": "increase"}, {"measurement": "fiber number or density, middle region", "setting": "[1]; chronic PDTC, mature mdx", "value": "without altering"}, {"measurement": "density of fibers / loss of muscle fibers", "setting": "[1]; individual mdx mouse, 50 mg/kg on 238 of 258 days from 5 to 13.5 months, vs 14.6 month vehicle treated, 50 mg/kg", "value": "substantial improvements; also recorded: decreases the loss"}, {"measurement": "percent centronucleation", "setting": "[1]; mature mdx mice, Series 2 and 3, p<0.001", "value": "reduced; also recorded: significantly decreased"}, {"measurement": "fiber diameter, caudal region", "setting": "[1]; [6]", "value": "reduction"}, {"measurement": "fiber diameter, middle region", "setting": "[1]; [6]", "value": "increase"}]}
